Measurements published in paper PMC11836371, “Virtual fragment screening for DNA repair inhibitors in vast chemical space” (Nature Communications, 2025).
pEC50: −log10 of the molar value. Values joined by “and” are separate entries in the source; they are usually repeats but may differ in a detail not shown here. Equal entries are not always repeated.

Assays:
Format in all cases: cell-based
HCT116 cells = assay: Cancer cell viability assay (resazurin), HCT116; settings: two independent experiments
Description: (§1) Three different cancer cell lines A2780 (ovarian cancer, ECACC 93112519), A549 (lung cancer, ATCC 60150896) and HCT116 (colon cancer, ATCC CCL-247), and one immortalized fibroblast cell line (BJhTERT) as control, were seeded in black/clear 384-well plates (Corning #3764), 50 µL/well, containing 11 concentrations, nano-dispensed, dose-response curves of the test compounds. A2780, HCT116, and HEK293T cell lines were authenticated with STR profiling, frozen down, and these stocks were used in experiments. The A2780 cells were cultured in RPMI 1640, the A549 and BJhTERT cells in DMEM, and the HCT116 cells in McCoys 5 A medium. All media were supplemented with 10% FBS and 1% P/S. All cell culture media, additives, and reagents were purchased from Thermo Fisher Scientific. The cell plates were incubated 72 hours in a humidified incubator at 37 °C with 5% CO2, after which resazurin (Sigma-Aldrich), 10 µL/well, was added to a final concentration of 10 µg/mL. The plates were incubated for 6 hours with resazurin followed by fluorescence readings in a Sense plate reader (Hidex), resorufin protocol (ex 544 nm/em 595 nm). The cell viability was calculated compared to untreated control wells and the EC50 values were determined in XLfit (IDBS).

[1] = Cell viability assay (resazurin), BJhTERT non-transformed control; design: key to cell viability, cytotoxicity curve (Figure3H): % viability relative to untreated control wells; settings: human, BJhTERT
Description: (§2) A2780, HCT116, and HEK293T cell lines were authenticated with STR profiling, frozen down, and these stocks were used in experiments. […] All media were supplemented with 10% FBS and 1% P/S. All cell culture media, additives, and reagents were purchased from Thermo Fisher Scientific. The cell plates were incubated 72 hours in a humidified incubator at 37 °C with 5% CO2, after which resazurin (Sigma-Aldrich), 10 µL/well, was added to a final concentration of 10 µg/mL. […] The cell viability was calculated compared to untreated control wells and the EC50 values were determined in XLfit (IDBS).

BJhTERT cells = assay: as above; design: key to cell viability, cytotoxicity curve (Figure3H): % viability relative to untreated control wells
Description: as §2

A549 cells = assay: Cancer cell viability assay (resazurin), A549; settings: two independent experiments
Description: as §1

A2780 cells = assay: Cancer cell viability assay (resazurin), A2780; design: key to cell viability, cytotoxicity curve (Figure3H): % viability relative to untreated control wells
Description: as §1

## Nc1nn(-c2ccc(CC(=O)Nc3noc4c3CCCC4)cc2)c2ccccc12 [compound 11]
HCT116 cells; HCT116, 100 μM, 100 µM
  percentage cell viability: 20.29%
HCT116 cells; Homo sapiens, HCT-116, HCT116, 100 μM, read-out: percentage cell viability
  viability at 100 µM: 20%
[1]; 100 μM, two independent experiments, read-out: percentage cell viability
  viability at 72 h, 100 µM: 38.2%
[1]; Log conc. (M) 5.12861e-9, read-out: cell viability, cytotoxicity curve (Figure3H)
  viability at 72 h, 5.12861e-09 M: 94.3%
[1]; Log conc. (M) 1.51356e-8, read-out: cell viability, cytotoxicity curve (Figure3H)
  viability at 72 h, 1.51356e-08 M: 81.4%
[1]; Log conc. (M) 4.57088e-8, read-out: cell viability, cytotoxicity curve (Figure3H)
  viability at 72 h, 4.57088e-08 M: 92%
[1]; Log conc. (M) 1.38038e-7, read-out: cell viability, cytotoxicity curve (Figure3H)
  viability at 72 h, 1.38038e-07 M: 101%
[1]; Log conc. (M) 4.0738e-7, read-out: cell viability, cytotoxicity curve (Figure3H)
  viability at 72 h, 4.0738e-07 M: 79.8%
[1]; Log conc. (M) 1.23027e-6, read-out: cell viability, cytotoxicity curve (Figure3H)
  viability at 72 h, 1.23027e-06 M: 87.1%
[1]; Log conc. (M) 3.71535e-6, read-out: cell viability, cytotoxicity curve (Figure3H)
  viability at 72 h, 3.71535e-06 M: 84%
[1]; Log conc. (M) 1.12202e-5, read-out: cell viability, cytotoxicity curve (Figure3H)
  viability at 72 h, 1.12202e-05 M: 89.3%
[1]; Log conc. (M) 3.31131e-5, read-out: cell viability, cytotoxicity curve (Figure3H)
  viability at 72 h, 3.31131e-05 M: 71%
[1]; Log conc. (M) 0.0001, read-out: cell viability, cytotoxicity curve (Figure3H)
  viability at 72 h, 0.0001 M: 38.2%
BJhTERT cells; BJhTERT, 100 μM, two independent experiments
  percentage cell viability: 40.28%
BJhTERT cells; BJhTERT, Log conc. (M) 1.69824e-9
  cell viability, cytotoxicity curve (Figure3H): 80.73 and 114.45
BJhTERT cells; BJhTERT, Log conc. (M) 5.12861e-9
  cell viability, cytotoxicity curve (Figure3H): 111.95
BJhTERT cells; BJhTERT, Log conc. (M) 1.51356e-8
  cell viability, cytotoxicity curve (Figure3H): 93.48
BJhTERT cells; BJhTERT, Log conc. (M) 4.57088e-8
  cell viability, cytotoxicity curve (Figure3H): 99.27
BJhTERT cells; BJhTERT, Log conc. (M) 1.38038e-7
  cell viability, cytotoxicity curve (Figure3H): 112.5
BJhTERT cells; BJhTERT, Log conc. (M) 4.0738e-7
  cell viability, cytotoxicity curve (Figure3H): 95.56
BJhTERT cells; BJhTERT, Log conc. (M) 1.23027e-6
  cell viability, cytotoxicity curve (Figure3H): 91.5
BJhTERT cells; BJhTERT, Log conc. (M) 3.71535e-6
  cell viability, cytotoxicity curve (Figure3H): 96.04
BJhTERT cells; BJhTERT, Log conc. (M) 1.12202e-5
  cell viability, cytotoxicity curve (Figure3H): 108.1
BJhTERT cells; BJhTERT, Log conc. (M) 3.31131e-5
  cell viability, cytotoxicity curve (Figure3H): 71.45
BJhTERT cells; BJhTERT, Log conc. (M) 0.0001
  cell viability, cytotoxicity curve (Figure3H): 40.28
BJhTERT cells; non-transformed cells (BJhTERT), 72 h, read-out: EC50 (loss of viability)
  pEC50: < 4.15
A549 cells; A549, 100 μM, 100 µM
  percentage cell viability: 21.3%
A549 cells; Homo sapiens, A549, A549, 100 μM, read-out: percentage cell viability
  viability at 100 µM: 17.2%
A2780 cells; A2780, 100 μM, two independent experiments, 100 µM
  percentage cell viability: 1.69%
A2780 cells; A2780, Log conc. (M) 1.69824e-9
  cell viability, cytotoxicity curve (Figure3H): 91.8 and 117.36
A2780 cells; A2780, Log conc. (M) 5.12861e-9
  cell viability, cytotoxicity curve (Figure3H): 99.13 and 112.7
A2780 cells; A2780, Log conc. (M) 1.51356e-8
  cell viability, cytotoxicity curve (Figure3H): 105.26 and 125.33
A2780 cells; A2780, Log conc. (M) 4.57088e-8
  cell viability, cytotoxicity curve (Figure3H): 93.79 and 108.52
A2780 cells; A2780, Log conc. (M) 1.38038e-7
  cell viability, cytotoxicity curve (Figure3H): 82.27 and 122.21
A2780 cells; A2780, Log conc. (M) 4.0738e-7
  cell viability, cytotoxicity curve (Figure3H): 73.45 and 78.71
A2780 cells; A2780, Log conc. (M) 1.23027e-6
  cell viability, cytotoxicity curve (Figure3H): 82.77 and 87.65
A2780 cells; A2780, Log conc. (M) 3.71535e-6
  cell viability, cytotoxicity curve (Figure3H): 59.52 and 70.03
A2780 cells; A2780, Log conc. (M) 1.12202e-5
  cell viability, cytotoxicity curve (Figure3H): 22.19 and 22.95
A2780 cells; A2780, Log conc. (M) 3.31131e-5
  cell viability, cytotoxicity curve (Figure3H): 6.15 and 7.44
A2780 cells; A2780, Log conc. (M) 0.0001
  cell viability, cytotoxicity curve (Figure3H): 1.69
A2780 cells; Homo sapiens, A2780, A2780, 100 μM, two independent experiments, read-out: percentage cell viability
  viability at 100 µM: 1.43%
A2780 cells; Homo sapiens, A2780 cancer cells, 72 h, read-out: EC50 (loss of viability)
  pEC50: 5.27
